Read-outs that look alike come from different tables or passages of the source.
How the values were obtained:
WS-1 cell lines = assay: Cytotoxicity assay on WS-1 (Example 1); conditions: Table 5; WS-1, 48 h
Procedure: Cytotoxicity assay. The cytotoxicity assay was performed in 96-well plates (BD Falcon). The WS-1 cell lines were provided by ATCC. The WS-1 was cultured in DMEM+10% fetal calf serum. The cells were plated in a volume of 100 μL at a density of 5000 cells per well and incubated at 37° C.+5% CO2 for 24 h to promote cell adhesion.
The plates were incubated at 37° C.+5% CO2 for 48 h. The cells were then washed with 100 μL of HBSS and 150 μL of a 2% resazurin were added to the wells.
The therapeutic index is the ratio between the toxicity on normal cells, in this case fibroblast, and the toxicity on bacteria.

S. epidermidis = assay: Antibiotic assay (resazurin, Example 1), S. epidermidis strains
Enterococcus faecalis = assay: Antibiotic assay (resazurin, Example 1), Enterococcus faecalis; type: cell-based; conditions: for IC50: read-out: IC50
Procedure: (§1) Bacteria Strain. […] The MRSA were obtained as further described below.
(§2) Antibiotic agents. Cyprofloxacin and erythromycin were provided by Sigma-Aldrich. Gentamicin sulfate and vancomycin hydrochloride were provided by Calbiochem.
(§3) Five additional strains were tested: Streptococcus pneumoniae, Streptococcus agalactiae, Streptococcus pyogenes, Enterococcus faecalis and Corynebacterium jeikeium.

Streptococcus agalactiae = assay: Antibiotic assay (resazurin, Example 1), Streptococcus agalactiae; type: cell-based; conditions: for IC50: read-out: IC50
Procedure: as §1, §2, §3

S. aureus = assay: Antibiotic assay (resazurin, Example 1), S. aureus strains of Table 3; type: cell-based, Staphylococcus aureus; conditions: for IC50: read-out: IC50
From the text: as §1, §2

[1] = system: S. aureus wild type strain (ATCC 25923); assay: Antibiotic assay (resazurin, Example 1), S. aureus wild type; type: cell-based, Staphylococcus aureus
Procedure: as §1, §2
(§4) MRSA. Ten (10) strains of MRSA obtained as described above were tested along with an S. aureus wild type (WT) strain (ATCC25923).

[2] = system: methicillin-resistant Staphylococcus aureus (MRSA) strains; assay: Antibiotic assay (resazurin, Example 1), MRSA strains; type: cell-based; conditions: for IC50: read-out: IC50
From the text: as §1, §2
Isolation and identification of methicillin-resistant Staphylococcus aureus (MRSA) strains. From March 2007 to March 2008, 35 screening swabs from nares (n=31), throat (n=3), Groin pus (n=1) were obtained from patients hospitalized at Chicoutimi hospital. Identification of S. aureus was performed using the Slidex Staph-Kit (bioMerieux Vitek, Inc., Hazelwood, Mo.) according to the manufacturer's instructions. Quality control was performed with MRSA strain ATCC 43300 and S. aureus strain ATCC 25923. In addition, S. aureus profile was determined with API Staph test strip with bacterial suspension of saline McFarland of 0.5 (bioMerieux, Durham, N.C.) according to the manufacturer's protocol. API Staph strips were held for 24 h before the results were read. A latex agglutination (SLIDEX) test detecting methicilin resistance in Staphylococci based on the production of low-affinity PBP2a, which is encoded by the mecA gene was performed on all strains. An antibiogram was also performed to confirm the identification of MRSA strains using disk diffusion test.
Antibiotic susceptibility testing using disk diffusion method. The antimicrobial activity of different classes of antibiotics of the potential MRSA was determined by diffusion method (Kirby-Bauer) as described by NCCLS. The antibiotics tested included: penicillin (10 units), amoxicillin/clavulanic acid (20/10 μg), ciprofloxacin (5 μg), moxifloxacin (5 μg), levofloxacin (5 μg), clindamycin (15 μg), erythromycin (15 μg), cefoxitin (30 μg), linezolid (30 μg), trimethoprim/sulfomethoxazole (1.25/23.75 μg), rifampicin (5 μg), gentamicin (10 μg) and vancomycin (30 μg). The agar medium had pH 7.2 to 7.4 before inoculing potentiel MRSA. The antibiotics were maintained at 8° C. or lower −14° C. according to manufacturer's recommendations. The pure culture was inoculated on a non-selective plate for 18-24 h. Each colony was collected with a wire loop and transfered the growth to a tube containing 4 to 5 mL of a tryptic-soy broth. The inoculum density was standarized with BaSO4 using 0.5 McFarland standard. All strains were incubated at 37° C. until it achieves or exceeds the turbidity of 0.5 McFarland standard. Inoculation of the dried surface (Muller-Hinton agar plate) by streaking the swab over the entire sterile agar surface. This procedure was repeated two more times. After 15 min, the appropriate disk were applied on the surface with a sterile forceps. The inverted plates was placed in a incubator at 37° C./air/16 to 18 h or 24 h for vancomycin. The inhibition zones were measured with a millimetric ruler. Interpretation of zone sizes by references of the manufacturer. Quality control organisms used were ATCC strains number 25923.
as §4

Streptococcus pyogenes = assay: Antibiotic assay (resazurin, Example 1), Streptococcus pyogenes; type: cell-based; conditions: for IC50: read-out: IC50
Procedure: as §1, §2, §3

## O=C(CCc1ccccc1)c1c(O)cc(O)c(C/C=C/c2ccc(O)cc2)c1O [Compound III]
WS-1 cell lines
  WS-1 (toxicity on normal cells, fibroblast): 20 ± 3
S. epidermidis; S. epidermidis 14069
  IC50: 4.5 ± 0.3 µM
  Minimum Inhibitory Concentration (MIC): (10.9) μM
S. epidermidis; S. epidermidis 14085
  IC50: 3.6 ± 0.4 µM
  Minimum Inhibitory Concentration (MIC): (11.6) μM
S. epidermidis; S. epidermidis 14093
  IC50: 6.3 ± 0.6 µM
  Minimum Inhibitory Concentration (MIC): (8.43) μM
S. epidermidis; S. epidermidis 14134
  IC50: 3 ± 0.6 µM
  Minimum Inhibitory Concentration (MIC): (14.7) μM
S. epidermidis; S. epidermidis 14143
  IC50: 4.41 ± 0.04 µM
  Minimum Inhibitory Concentration (MIC): (9) μM
S. epidermidis; in words
  activity on S. epidermidis compared with ciprofloxacin: more active than ciprofloxacin
Enterococcus faecalis; Ent. Faecalis 14078
  Minimum Inhibitory Concentration (MIC): (>200) μM
  IC50: > 200 µM
Enterococcus faecalis; Ent. Faecalis 14115
  Minimum Inhibitory Concentration (MIC): (>200) μM
  IC50: > 200 µM
Enterococcus faecalis; in words
  activity against Enterococcus faecalis: No activity
Streptococcus agalactiae; Strep. agalactiae 14150
  Minimum Inhibitory Concentration (MIC): (>200) μM
  IC50: 154 ± 2 µM
Streptococcus agalactiae; Strep. agalactiae 14151
  Minimum Inhibitory Concentration (MIC): (>200) μM
  IC50: > 200 µM
Streptococcus agalactiae; Strep. agalactiae 14153
  Minimum Inhibitory Concentration (MIC): (>200) μM
  IC50: > 200 µM
Streptococcus agalactiae; in words
  activity against Streptococcus agalactiae strain 14150: active
S. aureus; S. aureus 14094
  Minimum Inhibitory Concentration (MIC): (5.5) μM
  IC50: 2.4 ± 0.2 µM
S. aureus; S. aureus 14108
  Minimum Inhibitory Concentration (MIC): (5.25) μM
  IC50: 2.7 ± 0.2 µM
S. aureus; S. aureus 14118
  Minimum Inhibitory Concentration (MIC): (3.46) μM
  IC50: 2.3 ± 0.1 µM
S. aureus; S. aureus 14154
  Minimum Inhibitory Concentration (MIC): (4.95) μM
  IC50: 1.5 ± 0.1 µM
[1]; S. aureus WT (ATCC 25923)
  Minimum Inhibitory Concentration (MIC): (5.81) μM
[1]; S. aureus WT (ATCC 25923), read-out: IC50
  IC50: 2.2 ± 0.6 µM
[1]; Table 5, same values as IC50 of Table 2, read-out: S. aureus WT ATCC 25923 (toxicity on bacteria)
  IC50: 2.2 ± 0.6 µM
[2]; MRSA 1
  Minimum Inhibitory Concentration (MIC): (5.5) μM
  IC50: 2.4 ± 0.2 µM
[2]; MRSA 2
  Minimum Inhibitory Concentration (MIC): (4.89) μM
  IC50: 2.3 ± 0.2 µM
[2]; MRSA 3
  Minimum Inhibitory Concentration (MIC): (5.11) μM
  IC50: 2.2 ± 0.2 µM
[2]; MRSA 4
  Minimum Inhibitory Concentration (MIC): (4.53) μM
  IC50: 2.2 ± 0.2 µM
[2]; MRSA 5
  Minimum Inhibitory Concentration (MIC): (4.27) μM
  IC50: 2.3 ± 0.2 µM
[2]; MRSA 6
  Minimum Inhibitory Concentration (MIC): (5.03) μM
  IC50: 2.2 ± 0.2 µM
[2]; MRSA 7
  Minimum Inhibitory Concentration (MIC): (4.93) μM
  IC50: 2.4 ± 0.2 µM
[2]; MRSA 8
  Minimum Inhibitory Concentration (MIC): (4.98) μM
  IC50: 2.2 ± 0.2 µM
[2]; MRSA 9
  Minimum Inhibitory Concentration (MIC): (5.77) μM
  IC50: 2.3 ± 0.2 µM
[2]; MRSA 10
  Minimum Inhibitory Concentration (MIC): (5.31) μM
  IC50: 2.8 ± 0.2 µM
Streptococcus pyogenes; Strep. pyogenes 14149
  Minimum Inhibitory Concentration (MIC): (>200) μM
  IC50: > 200 µM
Streptococcus pyogenes; Strep. pyogenes 14152
  Minimum Inhibitory Concentration (MIC): (>200) μM
  IC50: 174 ± 10 µM
Streptococcus pyogenes; in words
  activity against Streptococcus pyogenes strain 14152: active
